How the values were obtained:
[1] = target: T1, Thyroid hormone receptor alpha (Homo sapiens) (UniProt P10827); assay: Agonist activity at TRalpha-LBD expressed in HEK293 cells assessed as Gal4-DBD interaction by cellular mammalian one hybrid assay relative to thyroid; type: functional, cell-based
T1 sequence (whole entry): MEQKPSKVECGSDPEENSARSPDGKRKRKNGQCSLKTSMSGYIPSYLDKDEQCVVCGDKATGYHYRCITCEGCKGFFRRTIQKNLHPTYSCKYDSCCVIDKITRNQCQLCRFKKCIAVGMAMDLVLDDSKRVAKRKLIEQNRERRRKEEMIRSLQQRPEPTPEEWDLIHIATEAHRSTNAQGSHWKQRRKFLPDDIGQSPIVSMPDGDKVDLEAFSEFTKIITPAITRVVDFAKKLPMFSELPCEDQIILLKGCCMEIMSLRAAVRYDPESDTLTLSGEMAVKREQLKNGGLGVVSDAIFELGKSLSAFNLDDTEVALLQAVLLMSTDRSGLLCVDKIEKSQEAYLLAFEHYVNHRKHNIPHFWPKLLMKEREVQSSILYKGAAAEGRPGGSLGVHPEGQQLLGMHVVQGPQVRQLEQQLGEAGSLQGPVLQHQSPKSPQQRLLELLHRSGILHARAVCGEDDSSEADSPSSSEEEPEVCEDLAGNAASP

Bile acid receptor = target: T2, Bile acid receptor (Homo sapiens, UniProt Q96RI1); assay: Agonist activity at human GST-fused FXR LBD assessed as cofactor peptide interaction with receptor ligand binding domain by FRET assay
T2 sequence (Q96RI1 whole entry): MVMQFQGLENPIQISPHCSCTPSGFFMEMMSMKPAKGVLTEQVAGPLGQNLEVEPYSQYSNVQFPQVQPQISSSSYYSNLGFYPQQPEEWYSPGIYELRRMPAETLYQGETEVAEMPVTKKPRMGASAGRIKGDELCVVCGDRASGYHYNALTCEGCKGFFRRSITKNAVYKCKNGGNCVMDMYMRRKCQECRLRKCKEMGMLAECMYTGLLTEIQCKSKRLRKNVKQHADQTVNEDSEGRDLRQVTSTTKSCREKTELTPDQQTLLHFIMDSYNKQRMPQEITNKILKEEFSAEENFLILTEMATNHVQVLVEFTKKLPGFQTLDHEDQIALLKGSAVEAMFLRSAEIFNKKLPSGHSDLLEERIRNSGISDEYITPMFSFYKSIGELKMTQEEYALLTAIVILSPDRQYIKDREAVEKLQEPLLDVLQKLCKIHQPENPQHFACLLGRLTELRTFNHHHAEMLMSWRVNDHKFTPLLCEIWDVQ

[2] = target: T3, Retinoic acid receptor RXR-alpha (Homo sapiens, UniProt P19793); assay: Agonist activity at RXRalpha-LBD expressed in HEK293 cells assessed as Gal4-DBD interaction by cellular mammalian one hybrid assay; type: functional, cell-based
T3 sequence (P19793 whole entry): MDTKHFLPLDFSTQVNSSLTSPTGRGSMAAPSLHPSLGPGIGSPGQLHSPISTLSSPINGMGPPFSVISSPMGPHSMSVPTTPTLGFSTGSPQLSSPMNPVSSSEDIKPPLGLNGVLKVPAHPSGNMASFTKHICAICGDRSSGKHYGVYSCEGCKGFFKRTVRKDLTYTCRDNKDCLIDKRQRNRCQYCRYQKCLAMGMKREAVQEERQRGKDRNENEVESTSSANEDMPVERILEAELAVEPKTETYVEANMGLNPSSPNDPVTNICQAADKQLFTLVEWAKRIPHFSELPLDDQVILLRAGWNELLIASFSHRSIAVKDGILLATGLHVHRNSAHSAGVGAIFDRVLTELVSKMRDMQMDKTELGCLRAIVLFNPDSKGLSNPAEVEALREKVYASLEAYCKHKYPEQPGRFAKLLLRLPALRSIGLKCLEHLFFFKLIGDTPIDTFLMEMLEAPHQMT

[3] = target: T4, Retinoic acid receptor alpha (Homo sapiens) (UniProt P10276); assay: Agonist activity at RARalpha-LBD expressed in HEK293 cells assessed as Gal4-DBD interaction by cellular mammalian one hybrid assay relative to retinoic acid; type: functional, cell-based
T4 sequence (whole entry): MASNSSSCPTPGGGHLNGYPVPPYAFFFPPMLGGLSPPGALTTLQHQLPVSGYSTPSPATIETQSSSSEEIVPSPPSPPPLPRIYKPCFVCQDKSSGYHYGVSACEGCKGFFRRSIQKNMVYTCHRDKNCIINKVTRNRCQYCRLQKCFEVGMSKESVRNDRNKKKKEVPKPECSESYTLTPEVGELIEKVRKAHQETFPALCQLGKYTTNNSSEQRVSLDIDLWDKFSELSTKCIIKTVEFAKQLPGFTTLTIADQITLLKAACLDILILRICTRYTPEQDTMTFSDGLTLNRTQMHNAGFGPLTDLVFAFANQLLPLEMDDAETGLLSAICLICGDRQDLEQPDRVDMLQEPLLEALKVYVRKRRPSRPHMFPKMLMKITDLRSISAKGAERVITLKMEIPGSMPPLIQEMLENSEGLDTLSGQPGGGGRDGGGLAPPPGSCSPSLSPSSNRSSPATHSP

Vitamin D3 receptor = target: T5, Vitamin D3 receptor (Homo sapiens, UniProt P11473); assay: Agonist activity at VDR-LBD expressed in HEK293 cells assessed as Gal4-DBD interaction by cellular mammalian one hybrid assay; type: functional, cell-based
T5 sequence (P11473 whole entry): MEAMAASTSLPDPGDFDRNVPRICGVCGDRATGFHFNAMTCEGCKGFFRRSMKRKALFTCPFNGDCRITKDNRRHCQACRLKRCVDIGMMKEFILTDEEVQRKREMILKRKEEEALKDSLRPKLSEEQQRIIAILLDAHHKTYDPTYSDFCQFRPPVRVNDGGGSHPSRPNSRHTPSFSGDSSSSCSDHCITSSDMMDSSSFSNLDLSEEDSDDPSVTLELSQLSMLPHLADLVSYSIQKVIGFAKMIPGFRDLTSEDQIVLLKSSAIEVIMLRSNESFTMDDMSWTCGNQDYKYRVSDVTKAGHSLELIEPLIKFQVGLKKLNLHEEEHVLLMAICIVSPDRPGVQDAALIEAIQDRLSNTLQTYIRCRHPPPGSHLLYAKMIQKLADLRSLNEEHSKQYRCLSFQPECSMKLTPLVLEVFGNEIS

Row | Efficacy [1] [%] | EC50 (Bile acid receptor) [µM] | EC50 [2] [µM] | Efficacy [3] [%] | EC50 (Vitamin D3 receptor) [µM] | SMILES
1 | 0 | 0.003 | > 10 | 0 | > 10 | CN(Cc1cccc(C(=O)O)c1)c1ccc(OCc2c(-c3c(Cl)cccc3Cl)noc2C2CC2)nc1C(F)(F)F
2 | 0 | 0.022 | > 10 | 0 | > 10 | CC(C)c1onc(-c2c(Cl)cccc2Cl)c1COc1ccc(N(C)Cc2ccc(C(=O)O)cc2)c(C(F)(F)F)n1
3 | 0 | 0.012 | > 10 | 0 | > 10 | CN(Cc1ccc(C(=O)O)cc1)c1ccc(OCc2c(-c3c(Cl)cccc3Cl)noc2C2CC2)nc1C(F)(F)F
